In this assay the target is T1, BTK (Homo sapiens, UniProt Q06187).
T1 construct: endogenous in cells; host or cells: Ramos cells
T1 sequence (Q06187 whole entry): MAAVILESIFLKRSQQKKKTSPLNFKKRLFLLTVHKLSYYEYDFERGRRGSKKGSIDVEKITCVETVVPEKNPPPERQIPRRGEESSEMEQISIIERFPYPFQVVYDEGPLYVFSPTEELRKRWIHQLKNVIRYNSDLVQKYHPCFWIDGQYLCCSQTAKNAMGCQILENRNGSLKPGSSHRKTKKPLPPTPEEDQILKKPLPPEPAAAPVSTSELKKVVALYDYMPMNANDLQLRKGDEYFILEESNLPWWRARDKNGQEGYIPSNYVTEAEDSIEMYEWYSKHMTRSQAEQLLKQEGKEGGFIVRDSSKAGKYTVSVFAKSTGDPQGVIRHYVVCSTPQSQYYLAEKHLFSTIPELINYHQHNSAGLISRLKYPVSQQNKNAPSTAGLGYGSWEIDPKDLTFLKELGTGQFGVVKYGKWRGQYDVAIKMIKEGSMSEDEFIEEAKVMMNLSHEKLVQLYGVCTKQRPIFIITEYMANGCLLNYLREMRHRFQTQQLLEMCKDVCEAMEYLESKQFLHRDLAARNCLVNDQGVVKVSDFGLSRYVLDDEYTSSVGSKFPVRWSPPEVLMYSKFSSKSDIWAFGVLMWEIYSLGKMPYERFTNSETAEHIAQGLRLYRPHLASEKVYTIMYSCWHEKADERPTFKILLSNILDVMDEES
The assay can be described thus: BTK cell degradation in Ramos cells (total BTK ELISA). Type of assay: cell-based. Particulars: 16 h incubation, FastScan total BTK ELISA. In short, it runs like this:
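Ramos cells were treated for 16 h with compounds (7 doses, 5-fold dilution series, 0.1% DMSO). Total BTK in cell lysates was quantified by sandwich ELISA with TMB read-out at 450 nm.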
`NC(=O)c1c(-c2ccc(Oc3ccccc3)cc2)nn2c1NCC[C@H]2C1CCN(C(=O)COCCOCCNC(=O)CCCCN2CCN(c3ccc4c(c3)C(=O)N(C3CCC(=O)NC3=O)C4=O)CC2)CC1` (stereo partly drawn) [Example 35, (7S)-7-(1-(2-(2-(2-(5-(4-(2-(2,6-dioxopiperidin-3-yl)-1,3-dioxoisoindolin-5-yl)piperazin-1-yl)pentanamido)ethoxy)ethoxy)acetyl)piperidin-4-yl)-2-(4-phenoxyphenyl)-4,5,6,7-tetrahydropyrazolo[1,5-a]pyrimidine-3-carboxamide] displayed a 50% degradation concentration (DC50) of 0.326 µM.

Take `CN(CCOCCNc1cccc2c1C(=O)N(C1CCC(=O)NC1=O)C2=O)CCC(=O)N1CCC([C@@H]2CCNc3c(C(N)=O)c(-c4ccc(Oc5ccccc5)cc4)nn32)CC1` (stereo partly drawn) [Example 37, (7S)-7-(1-(3-((2-(2-((2-(2,6-dioxopiperidin-3-yl)-1,3-dioxoisoindolin-4-yl)amino)ethoxy)ethyl)(methyl)amino)propanoyl)piperidin-4-yl)-2-(4-phenoxyphenyl)-4,5,6,7-tetrahydropyrazolo[1,5-a]pyrimidine-3-carboxamide]: it took 0.12 µM to reach half-maximal degradation (DC50).

`CN(CCNc1cccc2c1C(=O)N(C1CCC(=O)NC1=O)C2=O)CCC(=O)N1CCC([C@@H]2CCNc3c(C(N)=O)c(-c4ccc(Oc5ccccc5)cc4)nn32)CC1` (stereo partly drawn) [Example 38, (7S)-7-(1-(3-((2-((2-(2,6-dioxopiperidin-3-yl)-1,3-dioxoisoindolin-4-yl)amino)ethyl)(methyl)amino)propanoyl)piperidin-4-yl)-2-(4-phenoxyphenyl)-4,5,6,7-tetrahydropyrazolo[1,5-a]pyrimidine-3-carboxamide]: half-maximal degradation (DC50) was put at 0.371 µM.

As for `NC(=O)c1c(-c2ccc(Oc3ccccc3)cc2)nn2c1NCC[C@H]2C1CCN(C(=O)CCc2ccc(N3CCN(c4ccc5c(c4)C(=O)N(C4CCC(=O)NC4=O)C5=O)CC3)cc2)CC1` (stereo partly drawn) [Example 40, (7S)-7-(1-(3-(4-(4-(2-(2,6-dioxopiperidin-3-yl)-1,3-dioxoisoindolin-5-yl)piperazin-1-yl)phenyl)propanoyl)piperidin-4-yl)-2-(4-phenoxyphenyl)-4,5,6,7-tetrahydropyrazolo[1,5-a]pyrimidine-3-carboxamide], the DC50 amounted to 0.074 µM.

In the case of `NC(=O)c1c(-c2ccc(Oc3ccccc3)cc2)nn2c1NCC[C@H]2C1CCN(C(=O)COCCOCCNC(=O)CCCN2CCN(c3ccc4c(c3)C(=O)N(C3CCC(=O)NC3=O)C4=O)CC2)CC1` (stereo partly drawn) [Example 42, (7S)-7-(1-(2-(2-(2-(4-(4-(2-(2,6-dioxopiperidin-3-yl)-1,3-dioxoisoindolin-5-yl)piperazin-1-yl)butanamido)ethoxy)ethoxy)acetyl)piperidin-4-yl)-2-(4-phenoxyphenyl)-4,5,6,7-tetrahydropyrazolo[1,5-a]pyrimidine-3-carboxamide], half-maximal degradation (DC50) was put at 0.624 µM.

For `NC(=O)c1c(-c2ccc(Oc3ccccc3)cc2)nn2c1NCC[C@H]2C1CCN(C2CCN(Cc3ccc(C(=O)NCCNc4cccc5c4C(=O)N(C4CCC(=O)NC4=O)C5=O)cc3)CC2)CC1` (stereo partly drawn) [Example 43, (7S)-7-(1′-(4-((2-((2-(2,6-dioxopiperidin-3-yl)-1,3-dioxoisoindolin-4-yl)amino)ethyl)carbamoyl)benzyl)-[1, 4′-bipiperidin]-4-yl)-2-(4-phenoxyphenyl)-4,5,6,7-tetrahydropyrazolo[1,5-a]pyrimidine-3-carboxamide], the DC50 is above 10 µM.

`NC(=O)c1c(-c2ccc(Oc3ccccc3)cc2)nn2c1NCC[C@H]2C1CCN(C(=O)CCCc2ccc(N3CCN(c4ccc5c(c4)C(=O)N(C4CCC(=O)NC4=O)C5=O)CC3)cc2)CC1` (stereo partly drawn) [Example 44, (7S)-7-(1-(4-(4-(4-(2-(2,6-dioxopiperidin-3-yl)-1,3-dioxoisoindolin-5-yl)piperazin-1-yl)phenyl)butanoyl)piperidin-4-yl)-2-(4-phenoxyphenyl)-4,5,6,7-tetrahydropyrazolo[1,5-a]pyrimidine-3-carboxamide]: the DC50 was above 10 µM.

On to `NC(=O)c1c(-c2ccc(Oc3ccccc3)cc2)nn2c1NCC[C@H]2C1CCN(C(=O)CCN2CCN(c3ccc(CNC(=O)CNc4cccc5c4CN(C4CCC(=O)NC4=O)C5=O)cc3)CC2)CC1` (stereo partly drawn) [Example 45, (7S)-7-(1-(3-(4-(4-((2-((2-(2,6-dioxopiperidin-3-yl)-1-oxoisoindolin-4-yl)amino)acetamido)methyl)phenyl)piperazin-1-yl)propanoyl)piperidin-4-yl)-2-(4-phenoxyphenyl)-4,5,6,7-tetrahydropyrazolo[1,5-a]pyrimidine-3-carboxamide], for which half-maximal degradation (DC50) was put at 0.382 µM.

Consider `CN(C/C=C/C(=O)N1CCC([C@@H]2CCNc3c(C(N)=O)c(-c4ccc(Oc5ccccc5)cc4)nn32)CC1)CCCCCNc1cccc2c1CN(C1CCC(=O)NC1=O)C2=O` (stereo partly drawn) [Example 46, (7S)-7-(1-((E)-4-((5-((2-(2,6-dioxopiperidin-3-yl)-1-oxoisoindolin-4-yl)amino)pentyl)(methyl)amino)but-2-enoyl)piperidin-4-yl)-2-(4-phenoxyphenyl)-4,5,6,7-tetrahydropyrazolo[1,5-a]pyrimidine-3-carboxamide], for which half-maximal degradation (DC50) was put at 0.198 µM.

With `CN(C/C=C/C(=O)N1CCC([C@@H]2CCNc3c(C(N)=O)c(-c4ccc(Oc5ccccc5)cc4)nn32)CC1)CCCCCCNc1cccc2c1CN(C1CCC(=O)NC1=O)C2=O` (stereo partly drawn) [Example 47, (7S)-7-(1-((E)-4-((6-((2-(2,6-dioxopiperidin-3-yl)-1-oxoisoindolin-4-yl)amino)hexyl)(methyl)amino)but-2-enoyl)piperidin-4-yl)-2-(4-phenoxyphenyl)-4,5,6,7-tetrahydropyrazolo[1,5-a]pyrimidine-3-carboxamide], the DC50 is 0.315 µM.

`CN(/C=C/C(=O)N1CCC([C@@H]2CCNc3c(C(N)=O)c(-c4ccc(Oc5ccccc5)cc4)nn32)CC1)CCNc1cccc2c1C(=O)N(C1CCC(=O)NC1=O)C2=O` (stereo partly drawn) [Example 49, (7S)-7-(1-((E)-3-((2-((2-(2,6-dioxopiperidin-3-yl)-1,3-dioxoisoindolin-4-yl)amino)ethyl)(methyl)amino)acryloyl)piperidin-4-yl)-2-(4-phenoxyphenyl)-4,5,6,7-tetrahydropyrazolo[1,5-a]pyrimidine-3-carboxamide] yielded a DC50 above 10 µM.

`CN(C/C=C/C(=O)N1CCC([C@@H]2CCNc3c(C(N)=O)c(-c4ccc(Oc5ccccc5)cc4)nn32)CC1)CCCCCCN1C(=O)CCC(N2C(=O)c3cccc(N)c3C2=O)C1=O` (stereo partly drawn) [Example 50, (7S)-7-(1-((E)-4-((6-(3-(4-amino-1,3-dioxoisoindolin-2-yl)-2,6-dioxopiperidin-1-yl)hexyl)(methyl)amino)but-2-enoyl)piperidin-4-yl)-2-(4-phenoxyphenyl)-4,5,6,7-tetrahydropyrazolo[1,5-a]pyrimidine-3-carboxamide] returned a DC50 above 10 µM.

For the compound `CN(C/C=C/C(=O)N1CCC([C@@H]2CCNc3c(C(N)=O)c(-c4ccc(Oc5ccccc5)cc4)nn32)CC1)CCCCCCN1C(=O)CCC(N2Cc3c(N)cccc3C2=O)C1=O` (stereo partly drawn) [Example 51, (7S)-7-(1-((E)-4-((6-(3-(4-amino-1-oxoisoindolin-2-yl)-2,6-dioxopiperidin-1-yl)hexyl)(methyl)amino)but-2-enoyl)piperidin-4-yl)-2-(4-phenoxyphenyl)-4,5,6,7-tetrahydropyrazolo[1,5-a]pyrimidine-3-carboxamide], the DC50 was above 10 µM.

`CN(C/C=C/C(=O)N1CCC([C@@H]2CCNc3c(C(N)=O)c(-c4ccc(Oc5ccccc5)cc4)nn32)CC1)CCOCCOCCOCCN1C(=O)CCC(N2Cc3c(N)cccc3C2=O)C1=O` (stereo partly drawn) [Example 52, (7S)-7-(1-((E)-1-(3-(4-amino-1-oxoisoindolin-2-yl)-2,6-dioxopiperidin-1-yl)-12-methyl-3,6,9-trioxa-12-azahexadec-14-en-16-oyl)piperidin-4-yl)-2-(4-phenoxyphenyl)-4,5,6,7-tetrahydropyrazolo[1,5-a]pyrimidine-3-carboxamide] had a DC50 of 0.144 µM.

`CN(C/C=C/C(=O)N1CCC([C@@H]2CCNc3c(C(N)=O)c(-c4ccc(Oc5ccccc5)cc4)nn32)CC1)CCCN1C(=O)CCC(N2Cc3c(N)cccc3C2=O)C1=O` (stereo partly drawn) [Example 54, (7S)-7-(1-((E)-4-((3-(3-(4-amino-1-oxoisoindolin-2-yl)-2,6-dioxopiperidin-1-yl)propyl)(methyl)amino)but-2-enoyl)piperidin-4-yl)-2-(4-phenoxyphenyl)-4,5,6,7-tetrahydropyrazolo[1,5-a]pyrimidine-3-carboxamide] came in with a DC50 of 0.428 µM.

`CN(C/C=C/C(=O)N1CCC([C@@H]2CCNc3c(C(N)=O)c(-c4ccc(Oc5ccccc5)cc4)nn32)CC1)CCOCCOCCN1C(=O)CCC(N2Cc3c(N)cccc3C2=O)C1=O` (stereo partly drawn) [Example 55, (7S)-7-(1-((E)-4-((2-(2-(2-(3-(4-amino-1-oxoisoindolin-2-yl)-2,6-dioxopiperidin-1-yl)ethoxy)ethoxy)ethyl)(methyl)amino)but-2-enoyl)piperidin-4-yl)-2-(4-phenoxyphenyl)-4,5,6,7-tetrahydropyrazolo[1,5-a]pyrimidine-3-carboxamide]: it took 0.382 µM to reach half-maximal degradation (DC50).

`NC(=O)c1c(-c2ccc(Oc3ccccc3)cc2)nn2c1NCC[C@H]2C1CCN(C(=O)CCN2CCN(c3ccc(CNC(=O)CCN4C(=O)CCC(N5Cc6c(N)cccc6C5=O)C4=O)cc3)CC2)CC1` (stereo partly drawn) [Example 56, (7S)-7-(1-(3-(4-(4-((3-(3-(4-amino-1-oxoisoindolin-2-yl)-2,6-dioxopiperidin-1-yl)propanamido)methyl)phenyl)piperazin-1-yl)propanoyl)piperidin-4-yl)-2-(4-phenoxyphenyl)-4,5,6,7-tetrahydropyrazolo[1,5-a]pyrimidine-3-carboxamide] showed a DC50 of 2.36 µM.

For `NC(=O)c1c(-c2ccc(Oc3ccccc3)cc2)nn2c1NCC[C@H]2C1CCN(C(=O)CCc2ccc(NC(=O)CNc3ccc4c(c3)C(=O)N(C3CCC(=O)NC3=O)C4=O)cc2)CC1` (stereo partly drawn) [Example 57, (7S)-7-(1-(3-(4-(2-((2-(2,6-dioxopiperidin-3-yl)-1,3-dioxoisoindolin-5-yl)amino)acetamido)phenyl)propanoyl)piperidin-4-yl)-2-(4-phenoxyphenyl)-4,5,6,7-tetrahydropyrazolo[1,5-a] pyrimidine-3-carboxamide], the DC50 was above 10 µM.

The record behind these values is patent publication US20220281876A1, “DEGRADATION OF BRUTON'S TYROSINE KINASE (BTK) BY CONJUGATION OF BTK INHIBITORS WITH E3 LIGASE LIGAND AND METHODS OF USE” (BEIGENE, LTD., priority 2019, published 2022).
